Key:
[1] = tested on: JAK1-dependent STAT6 phosphorylation downstream of IL-13 stimulation in TF-1 human erythroleukemia cells; assay: cells; settings: TF-1, read-out: IL-13-pSTAT6 IC50
[2] = tested on: JAK1-dependent STAT6 phosphorylation downstream of IL-13 stimulation in BEAS-2B human bronchial epithelial cells; assay: cells; settings: read-out: IL13-pSTAT6 BEASB2B IC50

| IC50 [1] [nM] | SMILES | IC50 [2] [nM] |
| --- | --- | --- |
| 2.9 | CN1CC[C@H]2CN(C(=O)c3ccc(Nc4nc5c(C6=CCN(C(=O)CCC(F)(F)F)CC6)cccn5n4)cc3)C[C@H]21 [Example 2-38, 1-[4-[2-[4-[(3aS,6aS)-1-methyl-2,3,3a,4,6,6a-hexahydropyrrolo[3,4-b]pyrrole-5-carbonyl]anilino]-[1,2,4]triazolo[1,5-a]pyridin-8-yl]-3,6-dihydro-2H-pyridin-1-yl]-4,4,4-trifluoro-butan-1-one] | 28.6 |
| 3.5 | CN1CCCC12CN(C(=O)c1ccc(Nc3nc4c(C5=CCN(C(=O)CCC(F)(F)F)CC5)cccn4n3)cc1)C2 [Example 2-40, 4,4,4-trifluoro-1-[4-[2-[4-(5-methyl-2,5-diazaspiro[3.4]octane-2-carbonyl)anilino]-[1,2,4]triazolo[1,5-a]pyridin-8-yl]-3,6-dihydro-2H-pyridin-1-yl]butan-1-one] | 18.7 |
| 3.8 | O=C(NC1CCN(C2CCCC2)CC1)c1ccc(Nc2nc3c(C4=CCN(C(=O)CCC(F)(F)F)CC4)cccn3n2)cc1 [Example 2-49, N-(1-cyclopentyl-4-piperidyl)-4-[[8-[1-(4,4,4-trifluorobutanoyl)-3,6-dihydro-2H-pyridin-4-yl]-[1,2,4]triazolo[1,5-a]pyridin-2-yl]amino]benzamide] | 10.2 |
| 6.7 | CCOC(=O)N1CC=C(c2cccn3nc(Nc4ccc(C(=O)NCCCN5CCOCC5)cc4)nc23)CC1 [Example 2-56, ethyl 4-[2-[4-(3-morpholinopropylcarbamoyl)anilino]-[1,2,4]triazolo[1,5-a]pyridin-8-yl]-3,6-dihydro-2H-pyridine-1-carboxylate] | 59.4 |
| 3.5 | CC1CCCN(CCNC(=O)c2ccc(Nc3nc4c(C5=CCN(C(=O)CCC(F)(F)F)CC5)cccn4n3)cc2)C1 (stereo not shown) [Example 2-101, N-[2-(3-methyl-1-piperidyl)ethyl]-4-[[8-[1-(4,4,4-trifluorobutanoyl)-3,6-dihydro-2H-pyridin-4-yl]-[1,2,4]triazolo[1,5-a]pyridin-2-yl]amino]benzamide] | 31.8 |
| 3.2 | Cc1ccc(CNC(=O)c2ccc(Nc3nc4c(C5=CCN(C(=O)CCC(F)(F)F)CC5)cccn4n3)cc2)cn1 [Example 2-148, N-[(6-methyl-3-pyridyl)methyl]-4-[[8-[1-(4,4,4-trifluorobutanoyl)-3,6-dihydro-2H-pyridin-4-yl]-[1,2,4]triazolo[1,5-a]pyridin-2-yl]amino]benzamide] | 15 |
| 4.5 | O=C(CCC(F)(F)F)N1CC=C(c2cccn3nc(Nc4ccc(C(=O)N5CCOC(c6ccccn6)C5)cc4)nc23)CC1 (stereo not shown) [Example 2-154, 4,4,4-trifluoro-1-[4-[2-[4-[2-(2-pyridyl)morpholine-4-carbonyl]anilino]-[1,2,4]triazolo[1,5-a]pyridin-8-yl]-3,6-dihydro-2H-pyridin-1-yl]butan-1-one] | 80.6 |
| 6.9 | O=C(CCC(F)(F)F)N1CC=C(c2cccn3nc(Nc4ccc(C(=O)N5CCC(N6CCOCC6)CC5)cc4)nc23)CC1 [Example 2-210, 4,4,4-trifluoro-1-[4-[2-[4-(4-morpholinopiperidine-1-carbonyl)anilino]-[1,2,4]triazolo[1,5-a]pyridin-8-yl]-3,6-dihydro-2H-pyridin-1-yl]butan-1-one] | 45.6 |
| 5.6 | CC(C)(CNC(=O)c1ccc(Nc2nc3c(C4=CCN(C(=O)CCC(F)(F)F)CC4)cccn3n2)cc1)N1CCOCC1 [Example 2-213, N-(2-methyl-2-morpholino-propyl)-4-[[8-[1-(4,4,4-trifluorobutanoyl)-3,6-dihydro-2H-pyridin-4-yl]-[1,2,4]triazolo[1,5-a]pyridin-2-yl]amino]benzamide] | 20.6 |
| 3.3 | CCN(Cc1ccncc1)C(=O)c1ccc(Nc2nc3c(C4=CCN(C(=O)CCC(F)(F)F)CC4)cccn3n2)cc1 [Example 2-219, N-ethyl-N-(4-pyridylmethyl)-4-[[8-[1-(4,4,4-trifluorobutanoyl)-3,6-dihydro-2H-pyridin-4-yl]-[1,2,4]triazolo[1,5-a]pyridin-2-yl]amino]benzamide] | 37.2 |
| 3 | CC1CN(CCNC(=O)c2ccc(Nc3nc4c(C5=CCN(C(=O)CCC(F)(F)F)CC5)cccn4n3)cc2)CC(C)O1 (stereo not shown) [Example 2-268, N-[2-(2,6-dimethylmorpholin-4-yl)ethyl]-4-[[8-[1-(4,4,4-trifluorobutanoyl)-3,6-dihydro-2H-pyridin-4-yl]-[1,2,4]triazolo[1,5-a]pyridin-2-yl]amino]benzamide] | 26.6 |
| 5.3 | O=C(NCCCN1CCOCC1)c1ccc(Nc2nc3c(C4=CCN(C(=O)CCC(F)(F)F)CC4)cccn3n2)cc1 [Example 2-271, N-(3-morpholinopropyl)-4-[[8-[1-(4,4,4-trifluorobutanoyl)-3,6-dihydro-2H-pyridin-4-yl]-[1,2,4]triazolo[1,5-a]pyridin-2-yl]amino]benzamide] | 15.9 |
| 3.9 | O=C(CCC(F)(F)F)N1CC=C(c2cccn3nc(Nc4ccc(C(=O)N(Cc5ccccn5)C5CC5)cc4)nc23)CC1 [Example 2-272, N-cyclopropyl-N-(2-pyridylmethyl)-4-[[8-[1-(4,4,4-trifluorobutanoyl)-3,6-dihydro-2H-pyridin-4-yl]-[1,2,4]triazolo[1,5-a]pyridin-2-yl]amino]benzamide] | 106 |
| 12.7 | CN1CCC(N(C)C(=O)c2ccc(Nc3nc4c(C5=CCN(C(=O)CCC(F)(F)F)CC5)cccn4n3)cc2)CC1 [Example 2-288, N-methyl-N-(1-methyl-4-piperidyl)-4-[[8-[1-(4,4,4-trifluorobutanoyl)-3,6-dihydro-2H-pyridin-4-yl]-[1,2,4]triazolo[1,5-a]pyridin-2-yl]amino]benzamide] | 77.7 |
| 4.3 | CC(CN1CCCCC1)NC(=O)c1ccc(Nc2nc3c(C4=CCN(C(=O)CCC(F)(F)F)CC4)cccn3n2)cc1 (stereo not shown) [Example 2-334, N-[1-methyl-2-(1-piperidyl)ethyl]-4-[[8-[1-(4,4,4-trifluorobutanoyl)-3,6-dihydro-2H-pyridin-4-yl]-[1,2,4]triazolo[1,5-a]pyridin-2-yl]amino]benzamide] | 30.7 |
| 3.3 | O=C(CCC(F)(F)F)N1CC=C(c2cccn3nc(Nc4ccc(C(=O)N5CCC(c6ccncc6)C5)cc4)nc23)CC1 (stereo not shown) [Example 2-338, 4,4,4-trifluoro-1-[4-[2-[4-[3-(4-pyridyl)pyrrolidine-1-carbonyl]anilino]-[1,2,4]triazolo[1,5-a]pyridin-8-yl]-3,6-dihydro-2H-pyridin-1-yl]butan-1-one] | 23.4 |
| 4.6 | O=C(NCCc1ccncc1)c1ccc(Nc2nc3c(C4=CCN(C(=O)CCC(F)(F)F)CC4)cccn3n2)cc1 [Example 2-343, N-[2-(4-pyridyl)ethyl]-4-[[8-[1-(4,4,4-trifluorobutanoyl)-3,6-dihydro-2H-pyridin-4-yl]-[1,2,4]triazolo[1,5-a]pyridin-2-yl]amino]benzamide] | 38.3 |

— patent publication US9873709B2 (priority 2013, dated 2018)
